According to patent US9227852B2, “Apparatus, systems, and methods for water treatment” (McWong Environmental Technology, priority 2008, dated 2016):
Read-outs that look alike come from different tables or passages of the source.

Experiments:
[1] = Comparison of treatment methods for removing geosmin from water (Table 4, FIG. 6)
MS2 coliphage = assay type: cell-based; conditions: for effect of peroxide addition on virus / MS2 coliphage disinfection: at the ozone and peroxide doses tested, media filtered or microfiltered water
[2] = Comparison of treatment methods for removing MIB from water (Table 4, FIG. 6)
[3] = Bench-scale ozone / AOP treatment of tertiary filtered effluent: Caffeine; conditions: Ozone Only Mode, ozone dose of 5 mg/l, FIG. 31
[4] = Destruction of trace organic compounds in waste water: bisphenol-A; set-up: dose or concentration left out as unconfirmed; conditions: FIG. 20
Method: (§1) While ozone and ozone/peroxide methods are know to reduce the levels of various organic compounds commonly found in waste water, the efficacy of the present apparatus, systems, and methods for removing nonylphenol (NP), bisphenol-A (BPA), and triclosan (TCS) from waste water was also tested.

[5] = Bench-scale ozone / AOP treatment of tertiary filtered effluent: Triclosan; conditions: Ozone Only Mode, ozone dose of 5 mg/l, FIG. 30
[6] = Bench-scale ozone / AOP treatment of tertiary filtered effluent: Estradiol Equivalents (B-screen bioassay); conditions: Ozone Only Mode, ozone dose of less than or equal to 5 mg/l, FIG. 27
[7] = Bench-scale ozone / AOP treatment of tertiary filtered effluent: Trimethoprim; conditions: Ozone Only Mode, ozone dose of 5 mg/l, FIG. 34
[8] = Bench-scale ozone / AOP treatment of tertiary filtered effluent: Sulfamethoxazole; conditions: Ozone Only Mode, ozone dose of 5 mg/l, FIG. 33
[9] = Bench-scale ozone / AOP treatment of tertiary filtered effluent: Ibuprofen; conditions: Ozone Only Mode
[10] = Destruction of trace organic compounds in waste water: nonylphenol; set-up: dose or concentration left out as unconfirmed; conditions: ozone dose of about, FIG. 20
Method: as §1

poliovirus = assay type: cell-based
total coliform = assay type: cell-based, coliforms
[11] = Destruction of trace organic compounds in waste water: triclosan; set-up: dose or concentration left out as unconfirmed; conditions: FIG. 20
Method: as §1

E. Coli = test: Bench-scale ozone / AOP disinfection of tertiary filtered effluent: E. Coli; assay type: cell-based; conditions: Ozone Only Mode, ozone dose of less than or equal to 5 mg/l
[12] = Bench-scale ozone / AOP treatment of tertiary filtered effluent: Fluoxetine; conditions: Ozone Only Mode, ozone dose of 5 mg/l, FIG. 32
[13] = Bench-scale ozone / AOP treatment of tertiary filtered effluent: Gemifibrozil; conditions: Ozone Only Mode, ozone dose of less than or equal to 5 mg/l, FIG. 28

OO [Hydrogen peroxide]
Removal (%) Geosmin ([1]; feed rate 1 mg/L): 50%
effect of peroxide addition on virus / MS2 coliphage disinfection (MS2 coliphage; listed as Peroxide): did not impact disinfection efficacy
effect of peroxide addition on virus / MS2 coliphage disinfection (MS2 coliphage; listed as hydrogen peroxide): did not interfere
effect of peroxide addition on virus / MS2 coliphage disinfection (MS2 coliphage; listed as peroxide): did not significantly affect disinfection
Removal (%) MIB ([2]; feed rate 1 mg/L): 72%

O=[O+][O-] [Ozone]
maximum removal of Caffeine [3]: > 96%
reduction of the levels of BPA [4]: substantially reduce
maximum removal of Triclosan [5]: > 76%
maximum removal of Estradiol Equivalents [6]: > 97%
maximum removal of Trimethoprim [7]: > 99%
maximum removal of Sulfamethoxazole [8]: > 99.9%
removal of Ibuprofen ([9]; ozone dose of 5 mg/l, FIG. 29): ~77%
maximum removal of Ibuprofen ([9]; ozone dose of less than or equal to 10 mg/l): > 98%
reduction of the levels of NP [10]: substantially reduce
Log Reduction of Poliovirus as a function of ozone dose (equation 1) (poliovirus): 0.3427×Ozone Dose−0.3621
disinfection of poliovirus corresponding to the 6.5-log disinfection of MS2 coliphage (poliovirus): 5 log
levels of coliforms after treatment (total coliform): non-detectable
ozone dose at which non-detectable levels of total coliform were achieved (total coliform): 4.5 mg/L
total coliform after treatment (total coliform): less than 2.2 MPN/100 mL
reduction in geosmin [1]: ~40%
Removal (%) Geosmin ([1]; feed rate 2.5 mg/L): 94%
Log Reduction of MS2 as a function of ozone dose (equation 2) (MS2 coliphage): 0.4045×Ozone Dose+0.1823
contact time sufficient to achieve a 6.5-log disinfection of MS2 coliphage (MS2 coliphage): about 10 seconds
disinfection of MS2 coliphage achieved (MS2 coliphage): 6.5 log
ozone dose required to achieve a 6.5-log disinfection of MS2 coliphage (MS2 coliphage): greater than 5 ppm
ozone required to achieve a 6.5-log disinfection of MS2 coliphage, relative to media-filtered water (MS2 coliphage): slightly lower
reduction of the levels of TCS [11]: substantially reduce
Removal (%) MIB ([2]; feed rate 2.5 mg/L): 77%
reduction in MIB ([2]; ozone 3 mg/L, FIG. 6): ~40%
log reduction of E. Coli (E. Coli): greater than 4 log
E. Coli after disinfection (below the detection limit) (E. Coli; untreated 12,000 organism/100 ml, FIG. 37): < 1 organism/100 ml
maximum removal of Fluoxetine [12]: > 97%
maximum removal of Gemifibrozil [13]: > 99%
